Where a name gives a salt, the structure may show the parent alone.
tested on: not given; assay: not given

melting point | Compound
≥ 300 °C | Cn1c(C(=O)NC(=N)N)cc2c(C(F)(F)F)cc(CCS(=O)(=O)O)cc21 [Example 39, 2-[2-[[[amino(imino)methyl]-amino]carbonyl]-1-methyl-4-(trifluoromethyl)-1H-indol-6-yl]ethanesulfonic Acid]
≥ 300 °C | Cn1c(C(=O)NC(=N)N)cc2c(C(F)(F)F)ccc(CCS(=O)(=O)O)c21 [Example 40, 2-[2-[[[Amino(imino)methyl]amino]carbonyl]-1-methyl-4-(trifluoromethyl)-1H-indol-7-yl]ethanesulfonic Acid]
≥ 300 °C | Cn1c(C(=O)NC(=N)N)cc2c(Cl)cc(CCS(=O)(=O)O)cc21 [Example 41, 2-[2-[[[Amino(imino)methyl]amino]carbonyl]-4-chloro-1-methyl-1H-indol-6-yl]ethanesulfonic Acid]
≥ 300 °C (dec.) | Cc1cc(CCS(=O)(=O)O)cc2c1cc(C(=O)NC(=N)N)n2C [Example 42, 2-[2-[[[Amino(imino)methyl]amino]carbonyl]-1,4-dimethyl-1H-indol-6-yl]ethanesulfonic Acid]
292 °C (dec.) | Cn1c(C(=O)NC(=N)N)cc2c(C(F)(F)F)cc(OCP(=O)(O)O)cc21 [Example 45, [[2-[[[amino(imino)methyl]-amino]carbonyl]-1-methyl-4-(trifluoromethyl)-1H-indol-6-yl]oxy]-methylphosphonic Acid]
260 °C (dec.) | Cn1c(C(=O)NC(=N)N)cc2c(C(F)(F)F)ccc(OCP(=O)(O)O)c21 [Example 46, [[2-[[[Amino(imino)methyl]amino]carbonyl]-1-methyl-4-(trifluoromethyl)-1H-indol-7-yl]oxy]methylphosphonic Acid]
263 °C (dec.) | Cn1c(C(=O)NC(=N)N)cc2c(Cl)cc(OCP(=O)(O)O)cc21 [Example 47, [[2-[[[Amino(imino)methyl]amino]carbonyl]-4-chloro-1-methyl-1H-indol-6-yl]oxy]methylphosphonic Acid]
247 °C | Cn1c(C(=O)NC(=N)N)cc2c(Cl)ccc(OCP(=O)(O)O)c21 [Example 48, [[2-[[[Amino(imino)methyl]amino]carbonyl]-4-chloro-1-methyl-1H-indol-7-yl]oxy]methylphosphonic Acid]
≥ 300 °C | Cc1cc(OCP(=O)(O)O)cc2c1cc(C(=O)NC(=N)N)n2C [Example 49, [[2-[[[Amino(imino)methyl]amino]carbonyl]-1,4-dimethyl-1H-indol-6-yl]oxy]methylphosphonic Acid]
270 °C (dec.) | Cc1ccc(OCP(=O)(O)O)c2c1cc(C(=O)NC(=N)N)n2C [Example 50, [[2-[[[Amino(imino)methyl]amino]carbonyl]-1,4-dimethyl-1H-indol-7-yl]oxy]methylphosphonic Acid]
277 °C (dec.) | Cn1c(C(=O)NC(=N)N)cc2c(C(F)(F)F)cc(CCP(=O)(O)O)cc21 [Example 51, 2-[2-[[[amino(imino)methyl]-amino]carbonyl]-1-methyl-4-(trifluoromethyl)-1H-indol-6-yl]ethylphosphonic Acid]
256 °C (dec.) | Cn1c(C(=O)NC(=N)N)cc2c(Cl)ccc(CCP(=O)(O)O)c21 [Example 53, 2-[2-[[[Amino(imino)methyl]amino]carbonyl]-4-chloro-1-methyl-1H-indol-7-yl]ethylphosphonic Acid]
255 °C (dec.) | Cc1cc(CCP(=O)(O)O)cc2c1cc(C(=O)NC(=N)N)n2C [Example 54, 2-[2-[[[Amino(imino)methyl]amino]carbonyl]-1,4-dimethyl-1H-indol-6-yl]ethylphosphonic Acid]

target: T1, Na^+/H^+ exchange transport system (Rattus norvegicus, UniProt P26431); assay: Inhibitory effect on the Na^+/H^+ exchange transport system (in vitro), pH change in isolated ventricular myocytes under an acidic load; format: cell-based
T1 construct: a pH change in isolated ventricular myocytes (rat) under an acidic load; endogenous in cells; host or cells: isolated rat ventricular myocytes
Description: Inhibitory Effect on the Na^+/H^+ Exchange Transport System (in vitro)
A test was carried out according to the method of Iemori et al. (J. Hypertension, 8, 153(1990)). In detail, inhibitory effect on the Na^+/H^+ exchange transport system was evaluated by using as an indication a pH change in isolated ventricular myocytes (rat) under an acidic load.

T1 sequence (P26431 whole entry): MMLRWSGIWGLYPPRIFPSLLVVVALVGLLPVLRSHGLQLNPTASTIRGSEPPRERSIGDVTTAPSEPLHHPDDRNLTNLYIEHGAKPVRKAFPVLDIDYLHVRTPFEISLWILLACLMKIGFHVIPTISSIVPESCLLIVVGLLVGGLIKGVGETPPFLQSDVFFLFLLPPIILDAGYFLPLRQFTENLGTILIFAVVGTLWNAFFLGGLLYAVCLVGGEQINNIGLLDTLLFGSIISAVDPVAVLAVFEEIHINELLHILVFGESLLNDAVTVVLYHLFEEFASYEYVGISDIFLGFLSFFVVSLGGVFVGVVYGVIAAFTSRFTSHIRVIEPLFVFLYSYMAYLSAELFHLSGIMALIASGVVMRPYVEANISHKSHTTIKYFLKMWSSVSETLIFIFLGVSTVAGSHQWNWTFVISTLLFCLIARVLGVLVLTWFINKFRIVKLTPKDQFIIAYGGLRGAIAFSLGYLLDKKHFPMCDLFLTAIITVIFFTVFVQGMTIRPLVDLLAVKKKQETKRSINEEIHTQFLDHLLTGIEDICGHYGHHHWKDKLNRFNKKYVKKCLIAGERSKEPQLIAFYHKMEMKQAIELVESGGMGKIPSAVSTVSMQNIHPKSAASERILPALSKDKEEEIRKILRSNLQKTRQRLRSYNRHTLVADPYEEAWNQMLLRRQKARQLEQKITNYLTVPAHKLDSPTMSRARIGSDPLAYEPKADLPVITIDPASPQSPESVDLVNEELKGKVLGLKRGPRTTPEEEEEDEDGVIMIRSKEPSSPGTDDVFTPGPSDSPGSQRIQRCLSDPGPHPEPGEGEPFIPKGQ

IC50 [nM] | Compound
10000 | Cc1c(OS(=O)(=O)O)ccc2c1cc(C(=O)NC(=N)N)n2C [Example 1, 2-[[[amino(imino)methyl]amino]-carbonyl]-1,4-dimethyl-1H-indol-5-yl Hydrogen Sulfate]
70 | Cc1cc(OS(=O)(=O)O)cc2c1cc(C(=O)NC(=N)N)n2C [Example 2, 2-[[[Amino(imino)methyl]amino]carbonyl]-1,4-dimethyl-1H-indol-6-yl Hydrogen Sulfate]
200 | Cc1ccc(OS(=O)(=O)O)c2c1cc(C(=O)NC(=N)N)n2C [Example 4, 2-[[[amino(imino)methyl]amino]-carbonyl]-1,4-dimethyl-1H-indol-7-yl Hydrogen Sulfate]
